Assay results taken from the COVID Moonshot data (paper PMC11187573), “Identification of SARS-CoV-2 Mpro inhibitors through deep reinforcement learning for de novo drug design and computational chemistry approaches” (RSC Medicinal Chemistry, 2024).

Assays:
[1] = target: SARS-CoV-2 Main Protease (SARS-CoV-2) (UniProt P0DTD1)
[2] = target: SARS-CoV-2 Main Protease (SARS-CoV-2) (UniProt P0DTD1); remark: listed apart in the source

| SMILES | inhibition ([1]; 50.0 µM) [%] | relative solubility at 20 uM | relative solubility at 100 uM | inhibition ([2]; 20.0 µM) [%] | inhibition ([2]; 50.0 µM) [%] | inhibition ([1]; 20.0 µM) [%] | IC50 [1] [µM] | IC50 [2] [µM] |
| --- | --- | --- | --- | --- | --- | --- | --- | --- |
| CC1(C)CC(C(=O)Nc2nncn2C2CC2)c2ccccc2O1 (stereo not given) | 0 | 1 | 0.98 | -0.71 | -5.02 | – | – | – |
| CCN(C)CC1CCN(c2ccc(S(N)(=O)=O)cc2)CC1 | 0 | 1 | 0.98 | 3.39 | 6.02 | 0 | – | – |
| O=C(c1cc(=O)[nH]c2ccc(Cl)cc12)N1CCN(S(=O)(=O)c2ccccc2F)CC1 | 17.1 | 0.94 | 0.91 | -7.48 | 4.42 | – | – | – |
| C=CC(=O)N(c1ccc2ncsc2c1)C(C(=O)Nc1c(C)cccc1CC)c1cccnc1 (stereo not given) | – | 0.97 | 0.97 | 7.67 | 10.7 | 0 | – | – |
| O=C(CCl)N1CCC(c2nc(-c3cccnc3)nc3ccccc23)CC1 | 100 | 0.92 | 0.8 | 56.8 | 71.5 | – | 14.9 | – |
| C[C@H]1CN(Cc2ccccc2)CC[C@@H]1NC(=O)C(=O)NCc1ccccc1CN1CCCC[C@@H]1C (stereo in doubt) | 0 | 1 | 0.99 | -2.35 | 1.34 | – | – | – |
| CN(C)c1ncccc1N(C)C(=O)C1CCOc2ccc(Cl)cc21 (stereo not given) | 0 | 1 | 0.99 | 1.42 | -4.96 | – | – | – |
| O=C(c1ccccc1)N1CCN(C(=O)C2CCOCC2)CC1 | 5.34 | 1 | 1 | 2.9 | 6.27 | 0.98 | – | – |
| Cc1ccncc1NC(=O)CCc1ccc(F)cc1 | 6.51 | 1 | 1 | 1.95 | 5.92 | – | – | – |
| Cc1cccc(NC(=O)C(C#N)C(=O)C2CCCC2)c1 (stereo not given) | 0 | 1 | 1 | – | -8.28 | 0.78 | – | – |
| O=C(Cn1nnc2ccccc21)N(Cc1ccsc1)c1ccc(-c2ccccc2)cc1 | 36.1 | 0.64 | 0.5 | 30.4 | 39.1 | – | – | – |
| C=CC(=O)N1CCCC(c2nc3ccccc3s2)C1 (stereo not given) | 0 | 0.99 | 0.99 | – | 14.5 | 0 | – | – |
| CC(C)NC1CCN(c2ccc(S(N)(=O)=O)cc2)CC1 | 0.505 | 1 | 0.98 | -1.27 | -1.56 | 0.29 | – | – |
| O=C(Nc1ccc([N+](=O)[O-])cc1Cl)c1cccc(Cl)c1 | – | 0.76 | 0.57 | -10.8 | -11.4 | 1.31 | – | – |
| C=CC(=O)N(c1ccc(C(C)(C)C)cc1)C(C(=O)Nc1ccc(OC)cc1C)c1cccnc1 (stereo not given) | -2.25 | 0.97 | 0.57 | – | 22.4 | 0 | – | – |
| CCC(=O)NCC[C@@H]1CCc2ccc3c(c21)CCO3 (stereo in doubt) | – | 1 | 1 | 0.473 | 6.69 | 0 | – | – |
| NS(=O)(=O)c1ccc(N2CCC(CN3CCCCC3)CC2)cc1 | 22.7 | 1 | 1.01 | -23.1 | -2.58 | – | – | – |
| N#Cc1ccc(Nc2ccc(NC(=O)Nc3cccnc3)cc2)nc1 | 0 | 1 | 0.91 | -1.31 | -3.7 | 0 | – | – |

| SMILES | inhibition ([1]; 50.0 µM) [%] | relative solubility at 20 uM | relative solubility at 100 uM | inhibition ([2]; 20.0 µM) [%] | inhibition ([2]; 50.0 µM) [%] | inhibition ([1]; 20.0 µM) [%] | IC50 [1] [µM] | IC50 [2] [µM] |
| --- | --- | --- | --- | --- | --- | --- | --- | --- |
| Nc1nnnn1-c1cccc(C(=O)Nc2c(-c3cccnc3)nc3ccccn23)c1 | 18.3 | 0.98 | 0.79 | -2.5 | 2.69 | 11 | – | – |
| C=CC(=O)N(c1ccc(SC)cc1)C(C(=O)Nc1c(C)cccc1CC)c1cccnc1 (stereo not given) | – | 0.85 | 0.67 | 11.1 | 24.5 | 0 | – | – |
| O=C(CCl)N1CCN(C(c2ccccc2)C2CCCCC2)CC1 (stereo not given) | 95.6 | 0.98 | 0.78 | 95.8 | 98.1 | – | 0.644 | 4.13 |
| CN(C)C(=O)C[C@@H]1CN(C(=O)c2cnn3c2CCC3)c2ccc(Cl)cc21 (stereo in doubt) | – | 1 | 1 | -17.5 | -10.8 | 0 | – | – |
| O=C1CC[C@H](C(=O)Nc2cccc(Br)c2)N1 (stereo in doubt) | 0 | 1 | 1 | 15 | 5.83 | – | – | – |
| O=C(Nc1nncn1C1CC1)[C@@H]1CCOc2ccc(Cl)cc21 (stereo in doubt) | -10.4 | 0.99 | 0.99 | -7.38 | 19.5 | – | – | – |
| Cc1csc(C(=O)N/N=C/c2cccnc2)c1N | -6.32 | 0.99 | 0.93 | -0.86 | -19.8 | – | – | – |
| N#Cc1ccnc(CNC(=O)Cc2c[nH]c3ncccc23)c1 | – | 0.97 | 0.98 | -23.2 | -17.2 | 0 | – | – |
| C=CC(=O)N(c1ccc(C(C)(C)C)cc1)C(C(=O)NC(C)(C)C)c1cncc(OC)c1C (stereo not given) | 39 | 0.99 | 0.95 | 8.6 | 28.6 | 8.1 | – | – |
| Cc1ccncc1-c1ccc(S(N)(=O)=O)cc1 | -2.15 | 1 | 1 | – | 8.58 | -2.96 | – | – |
| COc1ccccc1OCCN(C)C(=O)c1cc(=O)[nH]c2ccc(Cl)cc12 | 0 | 1 | 0.99 | 0.453 | 4.43 | – | – | – |
| O=C(NCc1coc2ccccc12)C1CCc2nnc(-c3ccc(O)cc3)n2C1 (stereo not given) | 55.3 | 0.89 | 0.94 | -9.94 | 2.5 | – | – | – |
| Cc1cccc(C)c1OCC(=O)N[C@@H](Cc1ccccc1)[C@@H](O)C[C@H](Cc1ccccc1)NC(=O)[C@H](C(C)C)N1CCCNC1=O (stereo in doubt) | – | 0.83 | 0.53 | 7.22 | 13 | 0 | – | – |
| COc1cc(NC(=O)C(=O)Nc2cc(OC)c(OC)c(OC)c2)cc(OC)c1OC | – | 0.99 | 0.92 | -9.4 | 4.05 | 0.456 | – | – |
| C=CC(=O)N(c1ccc(C(C)(C)C)cc1)C(C(=O)Nc1ccc(OC)cc1)c1cccnc1 (stereo not given) | 0 | 0.95 | 0.71 | – | 12 | 0 | – | – |
| Cc1cccc(-c2nnnn2C2CC2C)c1NC(=O)CCc1cccnc1 (stereo not given) | 13.5 | 1 | 1 | – | -16.5 | 0 | – | – |
| C=CC(=O)N(c1ccc(C(F)(F)F)cc1)C(C(=O)Nc1ccc(OC)cc1C)c1cccnc1 (stereo not given) | – | 0.95 | 0.62 | 7.06 | 25.4 | 11 | – | – |
| NC(=O)[C@@H]1CN(C2CCOCC2)C[C@H]1c1ccccc1 (stereo in doubt) | 0 | 1 | 1 | -22.2 | -23 | 0 | – | – |
